Measurements as given in patent US20150185224A1, “[…] CANCER RESPONSIVENESS TO BCG” (MEMORIAL SLOAN-KETTERING CANCER CENTER, priority 2012, published 2015).

Columns and labels:
Format in all cases: cell-based, human
T24 = system: T24
UM-UC-3 = system: UM-UC-3
J82 = system: J82
[1] = system: J82, T24, and UM-UC-3 bladder cancer cell lines
MGH-U3 = system: MGH-U3
VMCUB-3 = system: VMCUB-3
[2] = system: VMCUB-3 transfected with H-ras (G12V)
[3] = system: MGH-U4 transfected with PTEN shRNA

Compound: O=c1c(-c2ccc(O)cc2)coc2cc(O)cc(O)c12 [genistein]
- effect on BCG uptake (T24): not
- effect on BCG uptake (UM-UC-3): not
- effect on BCG uptake (J82): significantly inhibited

Compound: COc1ccc2c(c1)c(C1=C(c3c[nH]c4ccccc34)C(=O)NC1=O)cn2CCCN(C)C [Gö-6983]
- effect on BCG uptake [1]: not inhibited

Compound: PTEN shRNA (CCGGCCACAGCTAGAACTTATCAAACTCGAGTTTGATAAGTTCTAGCTGT)
- increase in uptake of BCG compared to non-targeting shRNA control (MGH-U3): approximately 2 fold
- increase in uptake of BCG compared to non-targeting shRNA control (VMCUB-3): not seen

Compound: Cc1ccc2c(c1)C(=O)C1(O)CCN(c3ccccc3)C1=N2 (stereo not shown) [blebbistatin]
- effect on BCG uptake [1]: not inhibited

Compound: Oc1ccc2ccccc2c1SSc1c(O)ccc2ccccc12 [IPA-3]
- effect on increased BCG uptake in a cell line with activated Ras [2]: inhibited increased BCG uptake
- effect on the increase in BCG uptake after PTEN knockdown [3]: completely abrogated the increase in BCG uptake

Compound: C[C@@H](N)[C@H]1CC[C@H](C(=O)Nc2ccncc2)CC1 [Y-27632]
- effect on BCG uptake [1]: did not have a significant effect
